The values that follow come from patent US8119660B2, “Small-molecule inhibitors of the androgen receptor” (The Regents of the University of California, priority 2007, dated 2012).

Assay type in all cases: cell-based, human
For assay [1], the system named is endogenous AR-regulated gene expression, LAPC4 cells. Kind of assay: qRT-PCR of androgen-responsive genes in LAPC4 cells. The conditions noted are these: No DHT = 1, 3 nM DHT alone or with 1 uM BIC, 100 nM PP or 100 nM HH. As to the method:
(§1) LAPC4 and LNCaP cells were grown in the presence or absence of 3 nM DHT in charcoal-stripped media, with or without the inhibitors. RNA was harvested using an RNAeasy kit (Qiagen) and reverse transcribed (MMLV-RT, Invitrogen). Real-time PCR was carried out on a 7300 Real Time PCR System (Applied Biosystems) using SYBR green as the detecting dye and Rox as the reference dye. The androgen responsive genes kalikrein 3, or PSA (KLK3) [Cleutjens, K. B., et al., Two androgen response regions cooperate in steroid hormone regulated activity of the prostate-specific antigen promoter. J Biol Chem, 1996. 271(11): p. 6379-88; Nelson, P. S., et al., The program of androgen-responsive genes in neoplastic prostate epithelium. Proc Natl Acad Sci USA, 2002. 99(18): p. 11890-5), metalloproteinase 16 (MMP16) (Nelson, P. S., et al., The program of androgen-responsive genes in neoplastic prostate epithelium. Proc Natl Acad Sci USA, 2002. 99(18): p. 11890-5), transmembrane protease serine 2 (TMPRSS2) (Nelson, P. S., et al., The program of androgen-responsive genes in neoplastic prostate epithelium. Proc Natl Acad Sci USA, 2002. 99(18): p. 11890-5; […] Vaarala, M. H., et al., Expression of transmembrane serine protease TMPRSS2 in mouse and human tissues. J Pathol, 2001. 193(1): p. 134-40), FK506-binding immunophilin 51 (FKBP51) (Nelson, P. S., et al., The program of androgen-responsive genes in neoplastic prostate epithelium. Proc Natl Acad Sci USA, 2002. 99(18): p. 11890-5; Amler, L. C., et al., Dysregulated expression of androgen-responsive and nonresponsive genes in the androgen-independent prostate cancer xenograft model CWR22-R1. Cancer Res, 2000. 60(21): p. 6134-41; Velasco, A. M., et al., Identification and validation of novel androgen-regulated genes in prostate cancer. Endocrinology, 2004. 145(8): p. 3913-24; Magee, J. A., et al., Direct, androgen receptor-mediated regulation of the FKBP5 gene via a distal enhancer element. Endocrinology, 2006. 147(1): p. 590-8), G-protein coupled receptor RDC1 homolog, or chemokine orphan receptor 1 (RDC-1) (Nelson, P. S., et al., The program of androgen-responsive genes in neoplastic prostate epithelium. Proc Natl Acad Sci USA, 2002. 99(18): p. 11890-5), NK homeobox family member 3 (Nk×3.1) (Nelson, P. S., et al., The program of androgen-responsive genes in neoplastic prostate epithelium. Proc Natl Acad Sci USA, 2002. 99(18): p. 11890-5; Bieberich, C. J., et al., Prostate-specific and androgen-dependent expression of a novel homeobox gene. J Biol Chem, 1996. 271(50): p. 31779-82; […]) were all normalized to the transcription of the housekeeping ribosomal gene (RPL19). All samples were done in triplicate and separately normalized.
On the technique in general: Real-time PCR tracks product formation cycle by cycle.

The subject of assay [2] is endogenous AR-regulated gene expression, LNCaP cells. Kind of assay: qRT-PCR of androgen-responsive genes in LNCaP cells. The conditions noted are these: No DHT = 1, 3 nM DHT alone or with 1 uM BIC, 100 nM PP or 100 nM HH. As to the method: as §1
Another assay relates to LNCaP cells. Briefly: Cell proliferation (DNA content, DAPI), LNCaP. The conditions noted are these: 3 nM DHT, seven days, PP 100 nM, HH 100 nM, BiC 1 μM, hydrochloride. An excerpt: LN-AR cells were created by retroviral infection of a high-expressing AR vector into LNCaP cells, and proliferate independent of androgen in cell culture, unlike their parental line (Chen, C. D., et al., Molecular determinants of resistance to antiandrogen therapy. Nat Med, 2004. 10(1): p. 33-9). HEK293 cells were used as a control. Cells were transferred to charcoal-stripped media two days before they were split and plated in quadruplicate at a density of approximately 20,000 cells/well in 48-well plates. […] Media were changed every day, using a single preparation to ensure consistent compound concentrations. Proliferation was determined by measuring the DNA content of the cells in each well. Each day, the cells in four wells were fixed in 100% cold methanol, followed by staining for 5 min at RT with 0.2 ng/mL 4′,6-diamidino-2-phenylindole (DAPI) in PBS. The cells were washed once in PBS, then read on a fluorescence plate reader using 365/439 excitation/emission wavelengths. LAPC4 and LNCaP cells proliferated to a much greater degree in the presence of DHT, while LN-AR cells proliferated in the presence and absence of DHT.

Entries after “also recorded” stand apart in the source; their conditions may differ. Counter-ions that a name gives are not always drawn.

In the case of `Cc1nccc2c1[nH]c1cc(O)ccc12` [HH, harmol hydrochloride], in assay [1], the “FKBP51 transcription (normalized to RPL19)” value came to 11.96; the “KLK3 transcription (normalized to RPL19)” value was determined as 1.64; the “MMP16 transcription (normalized to RPL19), androgen-repressed gene” value is 4.74; the “Nkx3.1 transcription (normalized to RPL19)” value is 1.55. Besides, in assay [1], the “RDC1 transcription (normalized to RPL19), androgen-repressed gene” value is 2.88 and the “TMPRSS2 transcription (normalized to RPL19)” value came to 1.86. Also, in assay [2], the “FKBP51 transcription (normalized to RPL19)” value was found to be 1.90; the “KLK3 transcription (normalized to RPL19)” value is listed as 1.46; the “MMP16 transcription (normalized to RPL19), androgen-repressed gene” value was 1.02; the “Nkx3.1 transcription (normalized to RPL19)” value stood at 1.28. Besides, in assay [2], the “RDC1 transcription (normalized to RPL19), androgen-repressed gene” value was 1.22 and the “TMPRSS2 transcription (normalized to RPL19)” value is listed as 1.22. Moreover, the “Inhibition of cell growth” value in the assay with LNCaP cells was “inhibited significantly; also recorded: exhibited growth-inhibitory properties”.
